In US10118944B2, “Cell penetrating peptides for intracellular delivery of molecules” (AADIGEN, LLC, priority 2012, dated 2018):

What was measured:
[1] = system: Hela; assay: VEPEP-5 mediated delivery of small hydrophobic molecules, inhibition of proliferation; assay type: cell-based; details: Homo sapiens, free drug without carrier
Text: (§1) VEPEP-5 peptides (Short-6, Short-7 and Short 11) have been used for the delivery of different small hydrophobic molecules including doxorubicin and porphyrin on different cell lines including primary cell lines and challenging cell lines. VEPEP-5 peptides form stable particles with small aromatic molecules (table 2). Effect of VEPEP-5 mediated delivery of doxorubicin and porphyrin have been investigated on cancer cell viability. […] The impact of carrier peptides to improve cellular uptake of small molecule drugs was estimated by following inhibition of proliferation of cancer cells.

[2] = system: MCF7; assay: as above; assay type: cell-based; details: Homo sapiens, free drug without carrier
Text: as §1

[3] = system: Hela; assay: VEPEP-5 mediated delivery of C4 peptide (targeting cdk2/cyclin A), cell proliferation; assay type: cell-based, Human; details: VEPEP-5 (Short-6, Short-7 and Short 11) mediated delivery
Method: (§2) Adherent HS68 fibroblasts, HeLa, PC3, Jurkat, CEM-SS and U2OS MCF-7 cell lines (from American Type Culture Collection (ATCC)), as well as MEF and PBMC were cultured in Dulbecco's Modified Eagle's Medium supplemented with 2 mM glutamine, 1% antibiotics (streptomycin 10,000 μg/ml, penicillin, 10,000 IU/ml) and 10% (w/v) foetal calf serum (FCS), at 37° C. in a humidified atmosphere containing 5% CO2. Stock solutions of VEPEP-5/peptide particles were prepared by complexing 1 μM peptide with VEPEP-5 peptides at a molar ratio of 1/20 for 30 min at 37° C. Lower concentrations of VEPEP-5-carrier/peptide (from 500 nM to 1 μM) were obtained by serial dilution of the stock complexes in PBS, in order to preserve the same VEPEP-5-carrier/peptide ratio. 150 000 cells seeded in a 35 mm dish the day prior transfection, were grown to 60% confluence and overlaid with 200 μl of preformed complexes, incubated for 3-5 min, then 400 μl of DMEM were added. After 30 min. incubation at 37° C., 1 ml of fresh DMEM containing 16% foetal calf serum (FCS) was added in order to reach a final FCS concentration of 10%, without removing the overlay of VEPEP-5/peptide complexes. Cells were returned to the incubator for 24 hrs. For CDK2 derived peptides cell proliferation was monitored after 24 and 48 hrs. Data reported are an average of 3 or 4 distinct experiments. […]

[4] = system: MCF7; assay: as above; assay type: cell-based, Human; details: VEPEP-5 (Short-6, Short-7 and Short 11) mediated delivery
Method: as §2

[5] = system: Cyclin B1 protein level; assay: VEPEP-5 mediated delivery of PNA antisense, Cyclin B1 knockdown; assay type: cell-based, Human; details: controls: free PNA; scrambled PNA complexed with Short-6 and Short-11
Text: VEPEP-5 (Short-6, Short-7 and Short 11) peptides have been used for the delivery of nucleic acid analog (PNA and morpholino) into different cell lines, including primary cell lines and challenging cell lines. Uptake was monitored by following biological response (Cyclin B1 knockdown). We then have applied Short-6, Short-7 and Short 11 for the delivery of PNA antisense targeting Cyclin B1 as previously described by Morris et al..

[6] = system: MEF; assay: VEPEP-5 mediated delivery of proteins (fluorescence/FACS); assay type: cell-based, Mouse; details: % of the cells
Method: (§3) Adherent HS68 fibroblasts, HeLa, PC3, Jurkat, CEM-SS and U2OS MCF-7 cell lines (from American Type Culture Collection (ATCC)), as well as MEF and PBMC were cultured in Dulbecco's Modified Eagle's Medium supplemented with 2 mM glutamine, 1% antibiotics (streptomycin 10,000 μg/ml, penicillin, 10,000 IU/ml) and 10% (w/v) foetal calf serum (FCS), at 37° C. in a humidified atmosphere containing 5% CO2. Stock solutions of VEPEP-5/peptide particles were prepared by complexing 1 μM peptide with VEPEP-5 peptides at a molar ratio of 1/20 for 30 min at 37° C. Lower concentrations of VEPEP-5-carrier/peptide (from 500 nM to 1 μM) were obtained by serial dilution of the stock complexes in PBS, in order to preserve the same VEPEP-5-carrier/peptide ratio. 150 000 cells seeded in a 35 mm dish the day prior transfection, were grown to 60% confluence and overlaid with 200 μl of preformed complexes, incubated for 3-5 min, then 400 μl of DMEM were added. After 30 min. incubation at 37° C., 1 ml of fresh DMEM containing 16% foetal calf serum (FCS) was added in order to reach a final FCS concentration of 10%, without removing the overlay of VEPEP-5/peptide complexes. Cells were returned to the incubator for 24 hrs. For CDK2 derived peptides cell proliferation was monitored after 24 and 48 hrs. Data reported are an average of 3 or 4 distinct experiments.
(§4) VEPEP-5 have been used for the delivery of different proteins into different cell lines, including primary cell lines, stem cell lines and challenging cell lines. Protein uptake was monitored using fluorescence spectroscopy and FACS analysis. GFP/RFP or Fluorescent labelled proteins were visualized in the different cell lines using fluorescence microscopy or FACS sorting (Table 5). In most of the cell lines, the uptake of RFP; GFP, Cy-5 labelled proteins is more than 50% of the cells.

[7] = system: MEF; assay: VEPEP-5 mediated delivery of fluorescent labelled peptide (microscopy/FACS); assay type: cell-based, Mouse; details: % of the cells
Method: as §3
(§5) VEPEP-5 peptides (Short-6, Short-7 and Short 11) have been used for the delivery of different peptides into different cell lines, including primary cell lines, stem cell lines and challenging cell lines. Peptide delivery was monitored using three approaches, fluorescence spectroscopy and monitoring biological responses (anti proliferation)
(§6) 1—Fluorescent labelled peptide was visualized in the different cell lines using fluorescence microscopy or FACS sorting (Table 3). In most of the cell lines, the uptake of Cy-5 labelled peptides is more than 70% of the cells

[8] = system: HeLa and U2OS cells; assay: Toxicity of VEPEP-5 particles by MTT assay; assay type: cell-based, Human
Method: Cytotoxic response was measured 24 hr later by colorimetric MTT assay (Sigma, Germany), respectively. […] Results correspond to the average of 3 separate experiments.

[9] = Fluorescence titration, VEPEP-5/SHM binding: doxorubicin; details: cargo Doxorubicin
Method: (§7) Fluorescence experiments were performed on a PTI spectrofluorimeter at 25° C. in a NaCl 154 mM buffer. Intrinsic Trp-fluorescence of VEPEP-5 was excited at 290 nm and emission spectrum was recorded between 310 and 400 nm, with a spectral band-pass of 2 and 8 nm for excitation and emission, respectively. FITC-fluorescence of labelled-peptide was excited at 492 nm and emission recorded between 500 and 580 nm. For […]/peptide interaction, 0.5 μM of FITC-labelled peptide was titrated by increasing concentrations of VEPEP-5. All measurements were corrected for the dilution and curve fitting were performed by using Grafit software (Erithacus).
(§8) VEPEP-5 peptides also form stable particles with small aromatic molecules including doxorubicin, porphyrin and charges molecules including nucleotide, nucleoside and peptide-analog of nucleic acids or fluorescent dyes (FIG. 1). The dissociation constant for small hydrophobic molecule ranges between 0.05 to 0.1 μM, depending on the nature of the dyes and of the peptides (Table 2).

[10] = Fluorescence titration, VEPEP-5/SHM binding: porphyrin; details: cargo porphyrin
Method: as §7, §8

[11] = Fluorescence titration, VEPEP-5/SHM binding: FAM-guanosine; details: cargo FAM-guanosine
Method: as §7, §8

[12] = system: PBMC; assay: VEPEP-5 mediated delivery of fluorescent labelled peptide (microscopy/FACS); assay type: cell-based, Human; details: % of the cells
Method: as §3, §5, §6

[13] = system: CEM-SS; assay: as above; assay type: cell-based, Human; details: % of the cells
Method: as §3, §5, §6

[14] = system: Hela; assay: as above; assay type: cell-based, Human; details: % of the cells
Method: as §3, §5, §6

[15] = system: HS-68; assay: as above; assay type: cell-based, Human; details: HS-68, % of the cells
Method: as §3, §5, §6

[16] = system: MCF7; assay: as above; assay type: cell-based, Human; details: MCF7, % of the cells
Method: as §3, §5, §6

[17] = system: U2OS; assay: as above; assay type: cell-based, Human; details: % of the cells
Method: as §3, §5, §6

[18] = system: Jurkat; assay: VEPEP-5 mediated delivery of proteins (fluorescence/FACS); assay type: cell-based, Human; details: % of the cells
Method: as §3, §4

[19] = system: CEM-SS; assay: as above; assay type: cell-based, Human; details: % of the cells
Method: as §3, §4

[20] = system: Hela; assay: as above; assay type: cell-based, Human; details: % of the cells
Method: as §3, §4

[21] = system: HS-68; assay: as above; assay type: cell-based, Human; details: HS-68, % of the cells
Method: as §3, §4

[22] = system: MCF7; assay: as above; assay type: cell-based, Human; details: MCF7, % of the cells
Method: as §3, §4

[23] = system: U2OS; assay: as above; assay type: cell-based, Human; details: % of the cells
Method: as §3, §4

Molecule | uptake of RFP; GFP, Cy-5 labelled proteins [6] [%] | Efficiency (uptake of fluorescent labelled peptide) [7] [%] | toxicity (MTT) ([8]; levels up to 200 nM) | toxicity (MTT) ([8]; maximum concentration of 1 μM) | Binding, Doxorubicin [9] | Binding, porphyrin [10] | Kd [10] [µM] | Binding, FAM-guanosine [11] | Efficiency (uptake of fluorescent labelled peptide) [12] [%] | Efficiency (uptake of fluorescent labelled peptide) [13] [%] | Efficiency (uptake of fluorescent labelled peptide) [14] [%] | Efficiency (uptake of fluorescent labelled peptide) [15] [%] | Efficiency (uptake of fluorescent labelled peptide) [16] [%] | Efficiency (uptake of fluorescent labelled peptide) [17] [%] | uptake of RFP; GFP, Cy-5 labelled proteins [18] [%] | uptake of RFP; GFP, Cy-5 labelled proteins [19] [%] | uptake of RFP; GFP, Cy-5 labelled proteins [20] [%] | uptake of RFP; GFP, Cy-5 labelled proteins [21] [%] | uptake of RFP; GFP, Cy-5 labelled proteins [22] [%] | uptake of RFP; GFP, Cy-5 labelled proteins [23] [%] | also measured
C1=Cc2cc3ccc(cc4nc(cc5ccc(cc1n2)[nH]5)C=C4)[nH]3 [Porphyrin, porphyrin] | – | – | – | – | – | – | – | – | – | – | – | – | – | – | – | – | – | – | – | – | IC50 [1]: 25 µM; IC50 [2]: 17 µM
KKQVRMAHLVLT (synthesized peptide C4) [Short C4] | – | – | – | – | – | – | – | – | – | – | – | – | – | – | – | – | – | – | – | – | peptide C4 concentration sufficient to block proliferation [3]: 100 nM; peptide C4 concentration sufficient to block proliferation [4]: 100 nM
TGC CAT CAA GCT TAG AGG-^CY5 (antisense TGCCATCAAGCTTAGAGG; all peptide nucleic acid (PNA); further chemistry not fully specified) [free PNA, PNA antisense targeting Cyclin B1, without carrier] | – | – | – | – | – | – | – | – | – | – | – | – | – | – | – | – | – | – | – | – | change in Cyclin B1 level [5]: no change
X1RSWFRLWFR [Short 11, X1 is beta-A or S; N-terminus acetylated, C-terminal cysteamide] | 60 | 70 | No toxicity | mild toxicity | yes | yes | 0.7 | yes | 78 | 70 | 69 | 80 | 58 | 55 | 78 | 65 | 60 | 70 | 62 | 71 | –
X1WFRLWFRLR [Short 7, X1 is beta-A or S; N-terminus acetylated, C-terminal cysteamide] | 65 | 71 | No toxicity | mild toxicity | yes | yes | 0.5 | yes | 80 | 75 | 70 | 78 | 75 | 71 | 70 | 60 | 80 | 80 | 75 | 80 | Kd [9]: 0.07 µM
X1WWRLWWRLR [Short 6, X1 is beta-A or S; N-terminus acetylated, C-terminal cysteamide] | 65 | 64 | No toxicity | mild toxicity | yes | yes | 0.4 | yes | 78 | 74 | 45 | 89 | 59 | 68 | 60 | 55 | 55 | 78 | 70 | 64 | Kd [11]: 0.06 µM
